Reference: patent publication US20220041538A1, “CA[…] ACID AND SALTS THEREOF” (EMERALD HEALTH PHARMACEUTICALS INC, priority 2018, published 2022)
Entries after “also recorded” stand apart in the source; their conditions may differ. Like-named read-outs stand apart in the source and are kept apart here.

Tests used:
IL-6 = assay: Real-time quantitative PCR of striatum, 3NP model, IL-6; settings: 3NP mice vs 3NP+Vehicle; I 10 mg/kg oral and i.p.; IIe 30 mg/kg oral, 10 mg/Kg i.p.
Protocol: (§1) Expression levels were calculated using the 2^−ΔΔCt method. Values are expressed as means±SEM for 3 animals per group.
(§2) Total RNA was isolated from striata (3NP model) using RNeasy Lipid Tissue Mini Kit (Qiagen, GmbH). The total amount of RNA extracted was quantitated by spectrometry at 260 nm and its purity from the ratio between the absorbance values at 260 and 280 nm. Genomic DNA was removed to eliminate DNA contamination. Single-stranded complementary DNA was synthesized from up to 1 μg of total RNA (pool from at least 3 animals per group) using iScript™ cDNA Synthesis Kit (Bio-Rad, Hercules, Calif., USA). The reaction mixture was kept frozen at −20° C. until enzymatic amplification. The iQ™ SYBR Green Supermix (Bio-Rad) was used to quantify mRNA levels for TNF-α and IL-6. Real-time PCR was performed using a CFX96 Real-Time PCR Detection System (Bio-Rad). The GAPDH housekeeping gene was used to standardize the mRNA expression levels in every sample. Expression levels were calculated using the 2^−ΔΔCt method.

6-OHDA challenged mice = assay: 6-OHDA murine model of Parkinson's disease (pole test, cylinder rearing test); assay type: in vivo; settings: oral or intraperitoneal, 14 days
Protocol: C57BL/6 mice were unilaterally injected intracerebroventricullarly with 6-hydroxydopamine (6-OHDA) or saline (control mice) and subjected to chronic intraperitoneal treatment with cannabigerol quinone acid (1) (oral […] in sesame oil, and intraperitoneal 10 mg/Kg in Tween80/Saline ( 1/16)) or vehicle (14 days), starting 16 h after the 6-OHDA injection. SHAM group corresponds to mice subjected to the surgical manipulation without injection of 6-OHDA. Motor coordination was evaluated by rotarod performance and motor activity was evaluated using a computer-aided actimeter. A: pole test results after oral treatment, B: cylinder rearing test results after oral treatment, C: pole test results after intraperitoneal treatment, D: cylinder rearing test results after intraperitoneal treatment.
Motor coordination was evaluated by rotarod performance and motor activity was evaluated using a computer-aided actimeter. A: pole test results after oral treatment, B: cylinder rearing test results after oral treatment, C: pole test results after intraperitoneal treatment, D: cylinder rearing test results after intraperitoneal treatment.
C57BL/6 mice pretreated intracerebroventricularly were anesthetized with an intraperitoneal injection of 200 mg/Kg of 2,2,2-tribromoethanol (Sigma-Aldrich) and placed in a stereotaxic frame with a mouse adapter (David Kopf Instruments, Tujunga, Calif., USA). […]
The pole test was used to detect bradykinesia and motor and cylinder rearing test to evaluate sensory-motor deficits in PD mice. For Pole test mice were placed head-upward on the top of a vertical rough-surfaced pole (diameter 8 mm; height 55 cm) and the time until animals descended to the floor was recorded with a maximum duration of 90 s. […] For Cylinder Rearing Test (CRT) the initial forepaw (left, right, or both) preference after placing the mouse in a methacrylate transparent cylinder of 15.5 cm in diameter and 12.7 cm in height was measured. […]

TNFα = assay: Real-time quantitative PCR of striatum, 3NP model, TNFα; settings: 3NP mice vs 3NP+Vehicle; I 10 mg/kg oral and i.p.; IIe 30 mg/kg oral, 10 mg/Kg i.p.
Protocol: as §1, §2

PPARγ = biological target: T1, PPARγ (Homo sapiens, UniProt P37231); assay: PolarScreen PPAR Competitor Assay (PPARγ binding, fluorescence polarization)
T1 sequence (P37231 238-505 limits assumed): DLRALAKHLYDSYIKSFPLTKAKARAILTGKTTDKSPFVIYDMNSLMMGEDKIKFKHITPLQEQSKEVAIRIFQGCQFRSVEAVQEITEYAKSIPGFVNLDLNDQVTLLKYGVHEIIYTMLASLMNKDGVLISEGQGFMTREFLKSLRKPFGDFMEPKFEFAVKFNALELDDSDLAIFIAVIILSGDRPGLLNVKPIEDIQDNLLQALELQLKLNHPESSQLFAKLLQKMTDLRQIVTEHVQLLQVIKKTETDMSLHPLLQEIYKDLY
Protocol: PPARγ binding activity was determined by using PolarScreen™ PPAR Competitor Assay kit (Life Technologies), according to the manufacturer's specifications. The PolarScreen™ PPAR Competitor Assay is a binding assay for determining IC50 values of compounds that bind to PPARγ.
Concentration of the compound of formula I and salts of formula II resulting in a half maximal shifts in polarization value determines the IC50.

3NP-intoxicated mice = assay: 3NP murine model of Huntington's disease, behavioral score; assay type: in vivo; settings: oral and intraperitoneal; I 10 mg/Kg both routes; sodium salt 30 mg/Kg oral, 10 mg/Kg i.p.
Protocol: Mice were subjected to behavioral tests for determining their neurological status after the treatment with oral cannabigerol quinone acid (I) (10 mg/Kg dissolved in sesame oil) and after intraperitoneal delivery (10 mg/Kg dissolved in ethanol/cremophor/saline). Hind limb clasping, Locomotor activity, and kyphosis were rated from 0 to 2 based on severity: a score of 0 typically indicates normal function and 2 seriously affected.
Mice were subjected to behavioral tests for determining their neurological status after the treatment with oral sodium salt of the cannabigerol quinone acid (30 mg/Kg dissolved saline) and after intraperitoneal delivery (10 mg/Kg dissolved in saline). Hind limb clasping, Locomotor activity, and kyphosis were rated from 0 to 2 based on severity: a score of 0 typically indicates normal function and 2 seriously affected. […]
Lesions of the striatum were induced with 3-NP in adult (16-week-old; 30 g) male C57BL/6 mice (Harlan Ibérica, Barcelona, Spain). […] We evaluated the general locomotor activity, the hindlimb clasping and dystonia, and the truncal dystonia. […]

[1] = test system: striatum of 3NP-intoxicated mice; assay: Histological analysis of striatum in 3NP model (Nissl staining, Iba-1 immunostaining); assay type: in vivo; settings: oral and intraperitoneal
Source text: Loss of neurons in the striatum (Nissl staining) and Iba1 (microglia marker) were detected by immunostaining in the coronal sections of striatum of mice treated with vehicle, 3NP+ vehicle, 3NP+ compound I (oral and intraperitoneal). Quantification of Nissl staining (A) and Iba1 (B) positive cells in the mouse striatum. Total average number of neurons and microglia is shown.
Quantification of Nissl staining (A) and Iba1 (B) positive cells in the mouse striatum. Total average number of neurons and microglia is shown.
Brains from 3NP model were fixed in 4% paraformaldehyde and 5-μm-thick sections for Nissl staining and immunohistochemical analysis of Iba-1, a marker of microglial cells. For immunohistochemistry sections were incubated overnight at 4° C. with monoclonal anti-mouse Iba-1 antibody (Millipore, Mass., USA) used at 1/50 dilution. After incubation with the corresponding primary antibody, sections were washed in 0.1 M PBS and incubated O/N at 4° C. with goat anti-mouse (Millipore, Mass., USA) secondary antibody. […] Negative control sections were obtained using the same protocol with omission of the primary antibody. All sections for each immunohistochemical procedure were processed at the same time and under the same conditions. […]

Nrf2 = settings: cited from earlier work

SMILES	gene expression of IL-6 in striatum (IL-6)	bradykinesia (pole test) (6-OHDA challenged mice)	clinical symptoms in 6-OH-DA challenged mice (6-OHDA challenged mice)	motor deficit (cylinder rearing test) (6-OHDA challenged mice)	gene expression of TNFα in striatum (TNFα)	Remaining fluorescence polarization (%) (PPARγ; compound concentration 0.01 ∝M)	Remaining fluorescence polarization (%) (PPARγ; compound concentration 0.05 ∝M)	Remaining fluorescence polarization (%) (PPARγ; compound concentration 0.1 ∝M)	Remaining fluorescence polarization (%) (PPARγ; compound concentration 0.5 ∝M)	Remaining fluorescence polarization (%) (PPARγ; compound concentration 1 ∝M)	Remaining fluorescence polarization (%) (PPARγ; compound concentration 5 ∝M)	Remaining fluorescence polarization (%) (PPARγ; compound concentration 10 ∝M)	Remaining fluorescence polarization (%) (PPARγ; compound concentration 25 ∝M)	Remaining fluorescence polarization (%) (PPARγ; compound concentration 50 ∝M)	clinical symptoms induced by 3-NP intoxication (behavioral score: hind limb clasping, locomotor activity, kyphosis) (3NP-intoxicated mice)	reactive microgliosis (Iba-1+ cells) [1]	striatal neurons (Nissl staining) against 3NP toxicity [1]	Nrf2 activation (electrophilic activity) (Nrf2)	Nrf2 activation (electrophilic activity) (Nrf2; listed as CBG-Q)
CCCCCC1=C(C(=O)O)C(=O)C(C/C=C(\C)CCC=C(C)C)=C(O)C1=O [I, cannabigerol quinone acid]	down regulated; also recorded: attenuated the up-regulation	attenuated	alleviates clinical symptoms	attenuated	down regulated; also recorded: attenuated the up-regulation	97.8%	97.3%	87.3%	78.2%	53.3%	20.7%	16.5%	24.4%	34.4%	clearly alleviates the clinical symptoms	prevented the induction of reactive microgliosis	preservation of striatal neurons	–	–
CCCCCC1=CC(=O)C(C/C=C(\C)CCC=C(C)C)=C(O)C1=O [VCE-003, cannabigerol hydroxy-quinone]	–	–	–	–	–	–	–	–	–	–	–	–	–	–	–	–	–	electrophilic (Nrf2 activation)	activates the transcription factor Nrf2
